Test results as given in patent publication US9957247B2, “SecA inhibitors and methods of making and using thereof” (Georgia State University Research Foundation, Inc., priority 2012, dated 2018).
Values after ≈ are worked out from the molar mass of the structure shown. Like-named read-outs stand apart in the source and are kept apart here.

Legend:
EcSecA [1] = biological target: T1, EcSecA (Escherichia coli, UniProt P10408); test: cell-based
Target sequence in this assay (P10408 whole entry): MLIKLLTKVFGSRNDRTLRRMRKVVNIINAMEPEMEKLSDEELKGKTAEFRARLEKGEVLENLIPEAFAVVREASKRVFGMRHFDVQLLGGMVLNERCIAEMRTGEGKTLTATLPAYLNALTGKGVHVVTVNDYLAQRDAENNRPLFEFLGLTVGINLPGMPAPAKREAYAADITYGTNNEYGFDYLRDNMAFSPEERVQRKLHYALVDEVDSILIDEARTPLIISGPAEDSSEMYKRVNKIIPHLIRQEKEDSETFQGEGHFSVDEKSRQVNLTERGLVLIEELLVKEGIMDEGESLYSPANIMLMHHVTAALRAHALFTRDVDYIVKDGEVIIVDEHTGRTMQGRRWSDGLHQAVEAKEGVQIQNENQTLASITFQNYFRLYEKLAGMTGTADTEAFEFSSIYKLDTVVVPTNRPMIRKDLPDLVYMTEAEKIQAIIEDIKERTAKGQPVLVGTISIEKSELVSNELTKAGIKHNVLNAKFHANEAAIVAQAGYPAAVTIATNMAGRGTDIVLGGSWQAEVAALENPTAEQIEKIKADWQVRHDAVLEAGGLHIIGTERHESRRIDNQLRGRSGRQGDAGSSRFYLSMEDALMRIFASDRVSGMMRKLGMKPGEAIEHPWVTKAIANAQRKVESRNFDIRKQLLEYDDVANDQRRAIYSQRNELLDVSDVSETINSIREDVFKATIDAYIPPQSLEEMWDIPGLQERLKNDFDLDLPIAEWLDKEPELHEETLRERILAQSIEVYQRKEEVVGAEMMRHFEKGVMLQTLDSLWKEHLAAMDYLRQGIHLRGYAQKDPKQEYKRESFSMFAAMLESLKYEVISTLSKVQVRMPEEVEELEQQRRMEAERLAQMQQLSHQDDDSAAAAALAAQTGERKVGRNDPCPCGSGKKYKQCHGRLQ

EcSecA [2] = system: EcSecA
BsSecA [3] = biological target: T2, BsSecA (Bacillus subtilis, UniProt P28366); test: cell-based; design: species or system B. subtilis
B. subtilis 168 [4] = test: Bacteriostatic effect, liquid microdilution, B. subtilis 168; assay type: cell-based; conditions: Bacillus subtilis, Example 2
EcSecA [5] = biological target: T1, EcSecA; conditions: read-out: IC50, translocation ATPase activity of EcSecA; Example 1
Target sequence in this assay (P0AG99 whole entry): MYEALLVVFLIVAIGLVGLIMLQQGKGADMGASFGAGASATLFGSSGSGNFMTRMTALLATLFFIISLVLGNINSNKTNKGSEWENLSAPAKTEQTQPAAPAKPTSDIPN
Target sequence in this assay (P10408 whole entry): as the sequence (P10408 whole entry) above
Target sequence in this assay (P0AGA2 whole entry, further chain): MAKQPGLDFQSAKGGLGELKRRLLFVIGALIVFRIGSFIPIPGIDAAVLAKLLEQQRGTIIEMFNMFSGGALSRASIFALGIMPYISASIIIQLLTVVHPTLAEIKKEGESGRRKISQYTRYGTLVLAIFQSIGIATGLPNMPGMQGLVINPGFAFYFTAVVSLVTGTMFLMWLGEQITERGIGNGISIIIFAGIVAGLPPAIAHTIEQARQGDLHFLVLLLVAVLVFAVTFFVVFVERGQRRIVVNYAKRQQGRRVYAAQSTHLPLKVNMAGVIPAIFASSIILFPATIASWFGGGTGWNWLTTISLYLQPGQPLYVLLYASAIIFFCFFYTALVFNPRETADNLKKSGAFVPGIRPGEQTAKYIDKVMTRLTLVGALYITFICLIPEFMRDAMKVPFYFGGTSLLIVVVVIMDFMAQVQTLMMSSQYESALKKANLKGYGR
Target sequence in this assay (P0AG96 whole entry, further chain): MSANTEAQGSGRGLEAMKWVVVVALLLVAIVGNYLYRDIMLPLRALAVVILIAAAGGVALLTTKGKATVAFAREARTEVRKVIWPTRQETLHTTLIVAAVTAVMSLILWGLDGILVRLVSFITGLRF

EcSecA N68 = EcSecA N68 (Escherichia coli, UniProt P10408); test: biochemical; assay type: biochemical, E. coli
EcSecA [6] = assay type: biochemical, E. coli
F1F0-proton ATPase = F1F0-proton ATPase (Escherichia coli, UniProt P0ABB0+P0ABB4); test: Proton ATPase activity, reconstituted liposomes; assay type: biochemical, E. coli
Description: The N-terminal catalytic domain of SecA from E. coli (EcN68) was overexpressed from pIMBB28. EcN68 was used for the early and initial screening because it has higher intrinsic activity and is more sensitive to inhibitors. […] SecA proteins were purified as previously described. F1F0-proton ATPase-enriched membrane of E. coli strain KY7485 was prepared as described in the literature. F1F0-proton ATPase was partially purified by sucrose-gradient fractionation and then reconstituted into liposomes by dialysis. Non-radiolabeled and [^35S]-labeled proOmpA were purified as previously described. SecA-depleted BA13 membrane vesicles were prepared as described in the literature,[32] and washed with 6M urea to reduce endogenous ATPase activity.

BsSecA [7] = biological target: T2, BsSecA; test: biochemical; assay type: biochemical, B. subtilis; conditions: for Effect on the intrinsic ATPase activity of BsSecA: Example 1
EcSecA [8] = biological target: T1, EcSecA; conditions: read-out: IC50, membrane ATPase activity of EcSecA; Example 1
Target sequence in this assay (P0AG99 whole entry): as the sequence (P0AG99 whole entry) above
Target sequence in this assay (P10408 whole entry): as the sequence (P10408 whole entry) above
Target sequence in this assay (P0AGA2 whole entry, further chain): as the sequence (P0AGA2 whole entry, further chain) above
Target sequence in this assay (P0AG96 whole entry, further chain): as the sequence (P0AG96 whole entry, further chain) above

EcSecA [9] = biological target: T1, EcSecA; conditions: read-out: IC50, in vitro protein translocation of proOmpA; Example 1
Target sequence in this assay (P0AG99 whole entry): as the sequence (P0AG99 whole entry) above
Target sequence in this assay (P10408 whole entry): as the sequence (P10408 whole entry) above
Target sequence in this assay (P0AGA2 whole entry, further chain): as the sequence (P0AGA2 whole entry, further chain) above
Target sequence in this assay (P0AG96 whole entry, further chain): as the sequence (P0AG96 whole entry, further chain) above

S. aureus 8325-4 = test: Bacteriostatic effect, S. aureus 8325-4 (WT); conditions: Staphylococcus aureus, 83254, read-out: Bacteriostatic effect, MIC, WT 8325-4
S. aureus N315 = test: Bacteriostatic effect, S. aureus N315; conditions: Staphylococcus aureus, N315, read-out: Bacteriostatic effect, MIC, S. aureus N315
B. subtilis 168 [10] = test: Bactericidal effect assay, B. subtilis 168; assay type: cell-based
S. pyogenes, MGAS5005 = test: MIC95, S. pyogenes MGAS5005; assay type: cell-based; conditions: Streptococcus pyogenes, MGAS5005, read-out: MIC95, S. pyogenes MGAS5005
PaSecA = PaSecA (Pseudomonas aeruginosa, UniProt Q9LCT3); test: cell-based; assay type: cell-based
BsSecA2 = conditions: read-out: IC50, Intrinsic ATPase, BsSecA2; Table 1
SpSecA = SpSecA (Streptococcus pyogenes, UniProt Q99Y96); assay type: cell-based; conditions: read-out: IC50, Ion Channel activity, SpSecA
S. aureus Mu3 = test: Bacteriostatic effect, S. aureus Mu3; conditions: Staphylococcus aureus, MU3, read-out: Bacteriostatic effect, MIC, S. aureus Mu3
[11] = system: SecA (S. pyogenes, S. aureus, and E. coli); test: Oocyte assay, inhibition of SecA; conditions: read-out: IC50, inhibiting SecA in the oocyte assay
SaSecA2 = biological target: T3, SaSecA2 (Staphylococcus aureus, UniProt Q2FUW6); test: ATPase activity assay (malachite green), SaSecA2
T3 sequence (Q2FUW6 1-796): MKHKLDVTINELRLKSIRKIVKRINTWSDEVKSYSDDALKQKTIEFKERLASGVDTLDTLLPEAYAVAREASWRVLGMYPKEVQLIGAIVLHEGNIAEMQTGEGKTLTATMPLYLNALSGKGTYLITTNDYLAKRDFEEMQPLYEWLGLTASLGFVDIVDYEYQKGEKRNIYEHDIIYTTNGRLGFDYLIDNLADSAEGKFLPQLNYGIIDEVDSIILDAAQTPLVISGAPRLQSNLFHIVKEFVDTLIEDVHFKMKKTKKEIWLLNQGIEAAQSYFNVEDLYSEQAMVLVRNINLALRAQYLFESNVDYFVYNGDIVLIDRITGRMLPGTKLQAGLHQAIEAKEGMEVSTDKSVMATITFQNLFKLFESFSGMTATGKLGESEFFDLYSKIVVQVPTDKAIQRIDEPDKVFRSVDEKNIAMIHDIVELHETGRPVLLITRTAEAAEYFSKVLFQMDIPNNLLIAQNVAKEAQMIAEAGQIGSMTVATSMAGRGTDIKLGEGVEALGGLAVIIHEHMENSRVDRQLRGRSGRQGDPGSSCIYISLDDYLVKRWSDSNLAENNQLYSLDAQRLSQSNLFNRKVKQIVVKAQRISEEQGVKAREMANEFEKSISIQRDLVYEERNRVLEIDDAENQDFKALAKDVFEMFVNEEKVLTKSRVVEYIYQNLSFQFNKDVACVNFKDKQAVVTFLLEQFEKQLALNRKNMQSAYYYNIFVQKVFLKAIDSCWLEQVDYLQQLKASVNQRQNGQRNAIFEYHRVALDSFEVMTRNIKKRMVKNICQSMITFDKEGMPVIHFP

B. anthracis Sterne = test: microbe, parasite or virus in culture; assay type: cell-based; conditions: Bacillus anthracis, read-out: Bacteriostatic MIC95, B. anthracis Sterne
[12] = Bactericidal effect in the dark and under light (photooxidation); assay type: cell-based; conditions: for Effect of light on the bactericidal effect: under light versus dark
S. aureus Mu50 = test: Bacteriostatic effect, S. aureus Mu50; conditions: Staphylococcus aureus
S. aureus 6538 = test: Bacteriostatic effect, S. aureus 6538; conditions: Staphylococcus aureus, 6538, read-out: Bacteriostatic effect, MIC, S. aureus 6538
MsSecA = MsSecA (Mycolicibacterium smegmatis, UniProt P71533); test: SecA-liposomes ion-channel activity in oocytes, MsSecA; assay type: cell-based; conditions: Table 1
EcSecA [13] = biological target: T1, EcSecA; test: biochemical; conditions: IC50, Translocation ATPase, Table 1
Target sequence in this assay (P0AG99 whole entry): as the sequence (P0AG99 whole entry) above
Target sequence in this assay (P10408 whole entry): as the sequence (P10408 whole entry) above
Target sequence in this assay (P0AGA2 whole entry, further chain): as the sequence (P0AGA2 whole entry, further chain) above
Target sequence in this assay (P0AG96 whole entry, further chain): as the sequence (P0AG96 whole entry, further chain) above

EcSecA [14] = biological target: T1, EcSecA; test: biochemical; design: species or system E. coli; conditions: IC50, Intrinsic ATPase, Table 1, full-length EcSecA
Target sequence in this assay (P10408 whole entry): as the sequence (P10408 whole entry) above

[15] = system: secretion of α-hemolysin, enterotoxin B and TSST-1 by S. aureus Mu50; assay type: cell-based
BaSecA1 = BaSecA1 (Bacillus anthracis, UniProt Q81X26); test: cell-based; conditions: IC50, Ion Channel activity, BGaSecA 1
EcSecA [16] = biological target: T1, EcSecA; test: biochemical; conditions: IC50, Protein Translocation, Table 1
Target sequence in this assay (P0AG99 whole entry): as the sequence (P0AG99 whole entry) above
Target sequence in this assay (P10408 whole entry): as the sequence (P10408 whole entry) above
Target sequence in this assay (P0AGA2 whole entry, further chain): as the sequence (P0AGA2 whole entry, further chain) above
Target sequence in this assay (P0AG96 whole entry, further chain): as the sequence (P0AG96 whole entry, further chain) above

[17] = system: S. aureus deletion strains (NorA−, MepA−) and strains (NorA++, MepA++) with over-expressed efflux pumps; test: Antimicrobial effect with deletion or over expression of efflux pumps in S. aureus
MtbSecA = MtbSecA (Mycobacterium tuberculosis, UniProt P9WGP5); test: cell-based
[18] = IC50, Ion Channel activity, PASecA, Table 1
[19] = IC50, ATPase activity, SaSecA2, Table 7
[20] = IC50, Intrinsic ATPase, SaSecA2, Table 1
[21] = wild type, NorA−/MepA− and NorA++/MepA++ strains

Sequence of PaSecA (Q9LCT3 whole entry): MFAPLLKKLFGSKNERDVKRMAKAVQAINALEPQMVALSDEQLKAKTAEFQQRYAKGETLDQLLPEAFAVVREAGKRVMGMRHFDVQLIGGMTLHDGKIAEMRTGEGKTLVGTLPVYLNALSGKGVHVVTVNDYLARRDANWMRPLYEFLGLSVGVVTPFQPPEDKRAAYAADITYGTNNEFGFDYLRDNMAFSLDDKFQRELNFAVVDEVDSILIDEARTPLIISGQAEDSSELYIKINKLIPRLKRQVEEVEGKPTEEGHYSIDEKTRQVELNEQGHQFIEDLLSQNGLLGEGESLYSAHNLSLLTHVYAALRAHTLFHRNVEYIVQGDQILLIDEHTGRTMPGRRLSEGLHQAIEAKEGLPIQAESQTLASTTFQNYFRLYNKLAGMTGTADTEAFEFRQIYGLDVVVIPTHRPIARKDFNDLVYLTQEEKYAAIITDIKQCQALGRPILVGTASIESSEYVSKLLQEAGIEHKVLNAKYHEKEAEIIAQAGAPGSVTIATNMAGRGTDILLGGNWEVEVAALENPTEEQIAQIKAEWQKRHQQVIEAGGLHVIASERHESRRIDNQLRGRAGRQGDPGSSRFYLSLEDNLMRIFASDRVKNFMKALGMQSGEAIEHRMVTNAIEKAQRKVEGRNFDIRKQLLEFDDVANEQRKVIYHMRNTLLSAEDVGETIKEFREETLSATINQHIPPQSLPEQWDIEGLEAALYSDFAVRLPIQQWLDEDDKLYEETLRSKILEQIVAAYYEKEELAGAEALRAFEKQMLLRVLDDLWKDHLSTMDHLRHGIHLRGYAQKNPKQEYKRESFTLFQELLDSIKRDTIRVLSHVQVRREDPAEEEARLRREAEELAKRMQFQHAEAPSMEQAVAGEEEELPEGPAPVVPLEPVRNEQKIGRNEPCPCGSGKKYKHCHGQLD
T2 sequence (P28366 whole entry): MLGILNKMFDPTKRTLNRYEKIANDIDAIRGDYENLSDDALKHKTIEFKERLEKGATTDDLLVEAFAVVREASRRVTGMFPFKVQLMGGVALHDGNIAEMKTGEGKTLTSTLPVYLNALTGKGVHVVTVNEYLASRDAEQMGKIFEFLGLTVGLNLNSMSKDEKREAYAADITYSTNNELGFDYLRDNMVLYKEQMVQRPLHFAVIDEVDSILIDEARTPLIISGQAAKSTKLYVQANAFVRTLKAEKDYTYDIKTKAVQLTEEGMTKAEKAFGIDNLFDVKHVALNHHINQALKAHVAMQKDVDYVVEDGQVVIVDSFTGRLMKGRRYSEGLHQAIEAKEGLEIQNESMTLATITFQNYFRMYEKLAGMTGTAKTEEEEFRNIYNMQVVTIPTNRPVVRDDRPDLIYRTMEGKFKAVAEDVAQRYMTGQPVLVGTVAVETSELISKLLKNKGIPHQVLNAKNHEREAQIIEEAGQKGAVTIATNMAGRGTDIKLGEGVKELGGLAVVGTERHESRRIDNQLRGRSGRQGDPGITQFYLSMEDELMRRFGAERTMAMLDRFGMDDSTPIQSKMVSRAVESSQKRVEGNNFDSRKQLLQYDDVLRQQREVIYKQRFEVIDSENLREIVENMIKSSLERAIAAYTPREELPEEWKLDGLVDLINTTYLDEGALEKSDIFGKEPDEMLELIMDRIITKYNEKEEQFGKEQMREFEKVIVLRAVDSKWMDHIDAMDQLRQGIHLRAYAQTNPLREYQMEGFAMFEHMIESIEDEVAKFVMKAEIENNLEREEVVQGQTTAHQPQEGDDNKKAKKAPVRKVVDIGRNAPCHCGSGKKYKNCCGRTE

Oc1ccc2c(c1)Oc1cc(O)ccc1C2C1CCCCC1 [Compound 22d, 9-Cyclohexyl-9H-xanthene-3,6-diol]
IC50 (EcSecA [1]): 2.8 µM
Potency against EcSecA over BsSecA, channel activity (EcSecA [2]): about 2 fold
IC50 (BsSecA [3]; Ion channel, IC50, BsSecA, Table 5): 6.6 µM
MIC (B. subtilis 168 [4]): 22 µM (≈ 6.52 µg/mL)

O.O=C([O-])c1ccccc1-c1c2cc(I)c(=O)c(I)c-2oc2c(I)c([O-])c(I)cc12.[Na+].[Na+] [EB, Erythrosin B]
IC50 (EcSecA [5]): 10 to 20 µM
IC50 (EcSecA N68; Example 1, fluorescein analogs, read-out: IC50, EcN68 SecA ATPase (unregulated ATPase)): 2 µM
Mode of inhibition against ATP (EcSecA [6]; at low ATP concentrations): competitive inhibitors
IC50 (F1F0-proton ATPase; Example 1, read-out: IC50 against F1F0-proton ATPase): ~30 µM
Effect on the intrinsic ATPase activity of BsSecA (BsSecA [7]): inhibitory effects
IC50 (EcSecA [8]): 10 to 20 µM
IC50 (EcSecA [9]): 4 µM

O=C(O)c1c(Cl)c(Cl)c(Cl)c(Cl)c1-c1c2cc(I)c(=O)c(I)c-2oc2c(I)c(O)c(I)cc12 [RB, Rose Bengal]
MIC (S. aureus 8325-4): 13.2 µg/mL (≈ 13.6 µM)
MIC (S. aureus N315): 19.1 µg/mL (≈ 19.6 µM)
Bactericidal effect, kill of B. subtilis 168 (B. subtilis 168 [10]; 20 μM, one hour, FIG. 2): little effect
Decrease of cell survival (CFU) (B. subtilis 168 [10]; 100 μM, one-hour treatment): ~8 log units
MIC (S. pyogenes, MGAS5005): 6.25 µM (≈ 6.09 µg/mL)
Inhibition kinetics, channel activity, PaSecA-liposomes (PaSecA; FIG. 3C): non-competitive inhibition
IC50 (PaSecA; [18]): 0.3 µM
IC50 (PaSecA; Rose Bengal IC50, channel activity, PaSecA, +SecYEG + SecDF•C): 2 µM
IC50 (PaSecA; Rose Bengal IC50, channel activity, PaSecA, BA13, BA13 (first value of BA13/Re-13)): 5.1 µM
IC50 (PaSecA; Rose Bengal IC50, channel activity, PaSecA, Liposome + SecYEG): 1.1 µM
IC50 (PaSecA; Rose Bengal IC50, channel activity, PaSecA, Liposomes): 0.3 µM
IC50 (PaSecA; Rose Bengal IC50, channel activity, PaSecA, Re-13, Re-13 (second value of BA13/Re-13)): 0.3 µM
IC50 (BsSecA2): 15 µM
IC50 (SpSecA; Table 1): 0.9 µM
MIC (S. aureus Mu3): 38.2 µg/mL (≈ 39.2 µM)
IC50 [11]: 0.4 µM
Mode of inhibition against ATP (EcSecA [6]; at high ATP concentrations): competitive inhibition
IC50 (F1F0-proton ATPase): ~10 µM
Effect on the intrinsic ATPase activity of BsSecA (BsSecA [7]): inhibitory effects
IC50 (SaSecA2; [19]): 2.5 µM
IC50 (SaSecA2; [20]): 1 µM
MIC (B. anthracis Sterne): 12.2 µg/mL (≈ 12.5 µM)
Bactericidal effect in the dark ([12]; dark): little bactericidal effect
Effect of light on the bactericidal effect [12]: dramatically increased
MIC (S. aureus Mu50; MU50, read-out: Bacteriostatic MIC95, S. aureus Mu50): 40.7 µg/mL
MIC (S. aureus Mu50; MU50, read-out: Bacteriostatic effect MIC, S. aureus Mu50): 50.8 µg/mL
MIC (S. aureus Mu50; MU50, read-out: Bacteriostatic effect, MIC, S. aureus Mu50): 50.8 µg/mL
MIC (S. aureus 6538): 38.2 µg/mL (≈ 39.2 µM)
MIC (B. subtilis 168 [4]): 100 µM (≈ 97.4 µg/mL)

Oc1ccc2c(c1)Oc1cc(O)ccc1C2C1CCCC1 [SCA-41]
IC50 (EcSecA [1]): 3.4 µM
MIC (S. aureus 8325-4): 11.8 µg/mL (≈ 41.8 µM)
MIC (S. aureus N315): 14.1 µg/mL (≈ 49.9 µM)
IC50 (PaSecA; [18]): 3.6 µM
IC50 (BsSecA2): 30 µM
IC50 (SpSecA): 3 µM
IC50 (MsSecA): 3.5 µM
MIC (S. aureus Mu3): 14.1 µg/mL (≈ 49.9 µM)
IC50 (EcSecA [13]): 15 µM
IC50 (EcSecA N68): 8 µM
IC50 (BsSecA [7]): 30 µM
IC50 (SaSecA2; [19]): 32.5 µM
IC50 (SaSecA2; [20]): 6 µM
IC50 (EcSecA [14]): 30 µM
MIC (B. anthracis Sterne): 1.1 µg/mL (≈ 3.9 µM)
Effect of light on the bactericidal effect [12]: not affected by light
MIC (S. aureus Mu50; MU50, read-out: Bacteriostatic MIC95, S. aureus Mu50, Table 2): 1.7 µg/mL
MIC (S. aureus Mu50; MU50, read-out: Bacteriostatic effect MIC, S. aureus Mu50, Table 10 and Example 4): 8.8 µg/mL
MIC (S. aureus Mu50; MU50, read-out: Bacteriostatic effect, MIC, S. aureus Mu50, Table 8): 8.8 µg/mL
MIC (S. aureus Mu50; MU50, read-out: MIC95 against drug resistant S. aureus Mu50): 1.7 µM
Amount of α-hemolysin, enterotoxin B, and TSST-1 in the supernatant [15]: significantly decreased
MIC (S. aureus 6538): 10.6 µg/mL (≈ 37.5 µM)
IC50 (BsSecA [3]; IC50, Ion Channel activity, BsSecA, Table 1): 3 µM
IC50 (BaSecA1): 3.8 µM
IC50 (EcSecA [16]): 55 µM
Change of MIC on overexpression or deletion of NorA or MepA [17]: did not significantly change
Bactericidal (killing) effect with over expression of efflux pumps [17, 21]: not attenuated
MIC (bacteriostatic) with over expression of efflux pumps [17, 21]: did not increase
IC50 (MtbSecA): 3.2 µM
